The text below walks through data of patent publication US20140364431A1, “Quinoline and cinnoline derivatives and their applications” (Shenyang Pharmaceutical University, priority 2011, published 2014).

Assay [1] has as its system HT-29 (colon cancer cell). As to the kind of experiment: In vitro anti-tumor cellular activity (MTT), HT-29. The note with it: for IC50: Homo sapiens, read-out: HT-29 IC50. Format: cell-based, human.
For assay [2], the target named is T1, c-Met (His-tagged recombinant human Met (Amino acids 974-ends)) (Homo sapiens, UniProt P08581).
T1 construct: His-tagged recombinant human Met (Amino acids 974-ends); His; host or cells: baculovirus expression
T1 sequence (P08581 974-1390 limits assumed): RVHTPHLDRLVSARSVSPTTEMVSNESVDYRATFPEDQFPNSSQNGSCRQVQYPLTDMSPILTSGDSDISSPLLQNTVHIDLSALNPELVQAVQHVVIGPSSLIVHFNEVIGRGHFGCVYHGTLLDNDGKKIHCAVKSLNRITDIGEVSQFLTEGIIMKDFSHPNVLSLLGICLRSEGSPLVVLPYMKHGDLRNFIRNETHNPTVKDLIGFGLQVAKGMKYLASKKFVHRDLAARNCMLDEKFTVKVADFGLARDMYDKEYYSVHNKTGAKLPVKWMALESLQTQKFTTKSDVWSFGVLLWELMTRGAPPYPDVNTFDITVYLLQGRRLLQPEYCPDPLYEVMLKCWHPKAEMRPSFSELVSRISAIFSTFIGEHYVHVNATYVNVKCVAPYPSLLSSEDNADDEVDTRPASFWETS
As to the kind of experiment: c-Met kinase assay (ELISA). The class given is biochemical. Particulars: 50 pM c-Met, 5 μM ATP, 20 min. Here is the method: c-Met kinase activity was measured with an ELISA reader.
The reaction mixture was removed by washing with 0.2 μg/mL conjugated horseradish peroxidase (HRP) monoclonal antibody specific for phosphotyrosine (PY20) detecting phosphorylation of the substrate polymer. 1M phosphoric acid was added to terminate the color, the chromogenic substrate (TMB) was tested by spectrophotometry at 450 nm.

Assay [3] has as its system U87MG (Human malignant glioblastoma cells). As to the kind of experiment: In vitro anti-tumor cellular activity (MTT), U87MG. The class given is cell-based. Particulars: for IC50: Homo sapiens, U-87 MG, read-out: U87MG IC50.
Assay [4] concerns MKN-45 (human gastric carcinoma cell). As to the kind of experiment: In vitro anti-tumor cellular activity (MTT), MKN-45. Particulars: for IC50: Homo sapiens, read-out: MKN-45 IC50. Format: cell-based.
In assay [5] the test system is SMMC-7721 (hepatoma cell). As to the kind of experiment: In vitro anti-tumor cellular activity (MTT), SMMC-7721. The note with it: for IC50: Homo sapiens, read-out: SMMC-7721 IC50. The class given is cell-based, human.
For assay [6], the system named is H460 (human lung cancer cell). As to the kind of experiment: In vitro anti-tumor cellular activity (MTT), H460. Format: cell-based. The note with it: for IC50: Homo sapiens, read-out: H460 IC50.

Converted amounts (≈) assume the structure as drawn. Like-named read-outs stand apart in the source and are kept apart here.

Turning to `COc1cc2c(Oc3ccc(NC(=O)c4cn(-c5ccccc5C(F)(F)F)c5ccccc5c4=O)cc3F)ccnc2cc1OCCCN1CCOCC1.Cl.Cl` [Example 48, N-(3-fluoro-4-((6-methoxy-7-(3-(morpholin-4-yl)propoxy)quinolin-4-yl)oxy)phenyl)-4-oxo-1-(2-(trifluoromethyl)phenyl)-1,4-dihydroquinoline-3-carboxamide dihydrochloride], the IC50 in assay [1] (MTT, 72 hours, HT-29) is 0.65 µg/mL; in assay [2] it was 1350 nM; in assay [3] (MTT, 72 hours, U87MG) it was 0.88 µg/mL; in assay [4] (MTT, 72 hours, MKN-45) it was 1.1 µg/mL; in assay [5] (MTT, 72 hours, SMMC-7721), 0.56 µg/mL; in assay [6] (NCI-H460, MTT, 72 hours, H460), 0.7 µg/mL.
As to `COc1cc2c(Oc3ccc(NC(=O)c4nn(-c5ccc(Cl)cc5Cl)c5ccccc5c4=O)cc3F)ccnc2cc1OCCCN1CCN(C)CC1` [Example 43, N-(3-fluoro-4-((6-methoxy-7-(3-(4-methylpiperazin-1-yl)propoxy)quinolin-4-yl)oxy)phenyl)-1-(2,4-dichlorophenyl)-4-oxo-1,4-dihydrocinnoline-3-carboxamide], the IC50 is 1.2 µg/mL (≈ 1.58 µM) in assay [1] (HT-29, 72 h); 924 nM in assay [2]; 0.77 µg/mL (≈ 1.02 µM) in assay [3] (72 h); 0.45 µg/mL (≈ 0.594 µM) in assay [4] (MKN-45, 72 h); 1.8 µg/mL (≈ 2.38 µM) in assay [5] (SMMC-7721, 72 h); 0.53 µg/mL (≈ 0.7 µM) in assay [6] (NCI-H460, 72 h).
For the molecule `COc1cc2c(Oc3ccc(NC(=O)c4cn(-c5ccccc5Cl)c5ccccc5c4=O)cc3F)ccnc2cc1OCCCN1CCN(C)CC1` [Example 56, N-(3-fluoro-4-((6-methoxy-7-(3-(4-methylpiperazin-1-yl)propoxy)quinolin-4-yl)oxy)phenyl)-1-(2-chlorophenyl)-4-oxo-1,4-dihydroquinoline-3-carboxamide], the concentration for half-maximal inhibition (IC50) in assay [1] (MTT, 72 hours, HT-29) is 0.2 µg/mL (≈ 0.277 µM); in assay [2], 138 nM; in assay [3] (MTT, 72 hours, U87MG) it was 0.12 µg/mL (≈ 0.166 µM); in assay [4] (MTT, 72 hours, MKN-45), 0.21 µg/mL (≈ 0.291 µM); in assay [5] (MTT, 72 hours, SMMC-7721), 0.74 µg/mL (≈ 1.02 µM); in assay [6] (NCI-H460, MTT, 72 hours, H460) it was 0.75 µg/mL (≈ 1.04 µM).
Turning to “N-(3-fluoro-4-((6-methoxy-7-(3-(4-methylpiperidin-1-yl)propoxy)quinolin-4-yl)oxy)phenyl)-1-(2-chlorophenyl)-4-oxo-1,4-dihydrocinnoline-3-carboxamide dihydrochloride [Example 15]”, the “HT-29 IC50” value in assay [1] (MTT, 72 hours, HT-29) is 0.6 µg/mL. For the same molecule, the “c-Met IC50” value in assay [2] was found to be 0.66 µg/mL. Also, the “U87MG IC50” value in assay [3] (MTT, 72 hours, U87MG) is 0.2 µg/mL. Also, in assay [4] (MTT, 72 hours, MKN-45), the “MKN-45 IC50” value is 0.8 µg/mL. Besides, in assay [5] (MTT, 72 hours, SMMC-7721), the “SMMC-7721 IC50” value stood at 1.5 µg/mL. Also, the “H460 IC50” value in assay [6] (MTT, 72 hours, H460) was found to be 1 µg/mL.
Turning to `COc1cc2c(Oc3ccc(NC(=O)c4nn(-c5ccc(C)cc5C)c5ccccc5c4=O)cc3F)ccnc2cc1OCCCN1CCC(C)CC1` [Example 24, N-(3-fluoro-4-((6-methoxy-7-(3-(4-methylpiperidin-1-yl)propoxy)quinolin-4-yl)oxy)phenyl)-1-(2,4-dimethylphenyl)-4-oxo-1,4-dihydrocinnoline-3-carboxamide], the IC50 in assay [1] (MTT, 72 hours, HT-29) is 1.4 µg/mL (≈ 1.96 µM); in assay [2], 1260 nM; in assay [3] (MTT, 72 hours, U87MG), 2.8 µg/mL (≈ 3.91 µM); in assay [4] (MTT, 72 hours, MKN-45), 0.8 µg/mL (≈ 1.12 µM); in assay [5] (MTT, 72 hours, SMMC-7721), 0.86 µg/mL (≈ 1.2 µM); in assay [6] (NCI-H460, MTT, 72 hours, H460), 1.1 µg/mL (≈ 1.54 µM).
Turning to `COc1cc2c(Oc3ccc(NC(=O)c4nn(-c5ccc(F)cc5Br)c5ccccc5c4=O)cc3F)ccnc2cc1OCCCN1CCN(C)CC1` [Example 19, N-(3-fluoro-4-((6-methoxy-7-(3-(4-methylpiperazin-1-yl)propoxy)quinolin-4-yl)oxy)phenyl)-1-(2-bromo-4-fluorophenyl)-4-oxo-1,4-dihydrocinnoline-3-carboxamide], the IC50 is 0.54 µg/mL (≈ 0.687 µM) in assay [1] (MTT, 72 hours, HT-29); 1530 nM in assay [2]; 1.2 µg/mL (≈ 1.53 µM) in assay [3] (MTT, 72 hours, U87MG); 0.86 µg/mL (≈ 1.09 µM) in assay [4] (MTT, 72 hours, MKN-45); 1.6 µg/mL (≈ 2.04 µM) in assay [5] (MTT, 72 hours, SMMC-7721); 2.2 µg/mL (≈ 2.8 µM) in assay [6] (NCI-H460, MTT, 72 hours, H460).
As for `COc1cc2c(Oc3ccc(NC(=O)c4cn(-c5ccccc5F)c5ccccc5c4=O)cc3F)ccnc2cc1OCCCN1CCC(C)CC1` [Example 47, N-(3-fluoro-4-((6-methoxy-7-(3-(4-methylpiperidin-1-yl)propoxy)quinolin-4-yl)oxy)phenyl)-1-(2-fluorophenyl)-4-oxo-1,4-dihydroquinoline-3-carboxamide], the IC50 in assay [1] (MTT, 72 hours, HT-29) is 0.57 µg/mL (≈ 0.809 µM); in assay [2], 568 nM; in assay [3] (MTT, 72 hours, U87MG), 0.49 µg/mL (≈ 0.695 µM); in assay [4] (MTT, 72 hours, MKN-45), 0.34 µg/mL (≈ 0.482 µM); in assay [5] (MTT, 72 hours, SMMC-7721) it was 1.1 µg/mL (≈ 1.56 µM); in assay [6] (NCI-H460, MTT, 72 hours, H460), 0.54 µg/mL (≈ 0.766 µM).
As for `COc1cc2c(Oc3ccc(NC(=O)c4nn(-c5ccc(F)c(F)c5)c5ccccc5c4=O)cc3F)ccnc2cc1OCCCN1CCCCC1` [Example 11, N-(3-fluoro-4-((6-methoxy-7-(3-(piperidin-1-yl)propoxy)quinolin-4-yl)oxy)phenyl)-1-(3,4-difluorophenyl)-4-oxo-1,4-dihydrocinnoline-3-carboxamide], the half-maximal inhibitory concentration (IC50) is 0.38 µg/mL (≈ 0.535 µM) in assay [1] (MTT, 72 hours, HT-29); 42.3 nM in assay [2]; 3.5 µg/mL (≈ 4.93 µM) in assay [3] (MTT, 72 hours, U87MG); 0.12 µg/mL (≈ 0.169 µM) in assay [4] (MTT, 72 hours, MKN-45); 0.63 µg/mL (≈ 0.888 µM) in assay [5] (MTT, 72 hours, SMMC-7721); 0.06 µg/mL (≈ 0.0845 µM) in assay [6] (NCI-H460, MTT, 72 hours, H460).
`COc1cc2c(Oc3ccc(NC(=O)c4nn(-c5cc(C(F)(F)F)ccc5Cl)c5ccccc5c4=O)cc3F)ccnc2cc1OCCCN1CCN(C)CC1` [Example 23, N-(3-fluoro-4-((6-methoxy-7-(3-(4-methylpiperazin-1-yl)propoxy)quinolin-4-yl)oxy)phenyl)-1-(2-chloro-5-(trifluoromethyl)phenyl)-4-oxo-1,4-dihydrocinnoline-3-carboxamide]: the concentration for half-maximal inhibition (IC50) in assay [1] (MTT, 72 hours, HT-29) is 0.7 µg/mL (≈ 0.885 µM); in assay [2], 404 nM; in assay [3] (MTT, 72 hours, U87MG) it was 1.3 µg/mL (≈ 1.64 µM); in assay [4] (MTT, 72 hours, MKN-45) it was 0.9 µg/mL (≈ 1.14 µM); in assay [5] (MTT, 72 hours, SMMC-7721), 1.4 µg/mL (≈ 1.77 µM); in assay [6] (NCI-H460, MTT, 72 hours, H460), 1 µg/mL (≈ 1.26 µM).
As for `COc1cc2c(Oc3ccc(NC(=O)c4nn(-c5c(Cl)cccc5Cl)c5ccccc5c4=O)cc3F)ccnc2cc1OCCCN1CCN(C)CC1` [Example 32, N-(3-fluoro-4-((6-methoxy-7-(3-(4-methylpiperazin-1-yl)propoxy)quinolin-4-yl)oxy)phenyl)-1-(2,6-dichlorophenyl)-4-oxo-1,4-dihydrocinnoline-3-carboxamide], the IC50 in assay [1] (HT-29, 72 h) is 0.77 µg/mL (≈ 1.02 µM); in assay [2], 132 nM; in assay [3] (72 h), 0.65 µg/mL (≈ 0.858 µM); in assay [4] (MKN-45, 72 h), 1.2 µg/mL (≈ 1.58 µM); in assay [5] (SMMC-7721, 72 h), 0.66 µg/mL (≈ 0.871 µM); in assay [6] (NCI-H460, 72 h), 0.7 µg/mL (≈ 0.924 µM).
“N-(3-fluoro-4-((6-methoxy-7-(3-(4-methylpiperazin-1-yl)propoxy)quinolin-4-yl)oxy)phenyl)-1-(2-(trifluoromethyl)phenyl)-4-oxo-1,4-dihydrocinnoline-3-carboxamide [Example 44]”: in assay [1] (MTT, 72 hours, HT-29), the “HT-29 IC50” value came to 1.2 µg/mL. Further, the “c-Met IC50” value in assay [2] came out at 1.1 µg/mL. For the same molecule, the “U87MG IC50” value in assay [3] (MTT, 72 hours, U87MG) is 0.84 µg/mL. Besides, the “MKN-45 IC50” value in assay [4] (MTT, 72 hours, MKN-45) stood at 1.8 µg/mL. Further, in assay [5] (MTT, 72 hours, SMMC-7721), the “SMMC-7721 IC50” value amounted to 2.1 µg/mL. In addition, in assay [6] (MTT, 72 hours, H460), the “H460 IC50” value stood at 1.6 µg/mL.
Take `COc1cc2c(Oc3ccc(NC(=O)c4nn(-c5ccc(Br)cc5)c5ccccc5c4=O)cc3F)ccnc2cc1OCCCN1CCOCC1` [Example 39, N-(3-fluoro-4-((6-methoxy-7-(3-(morpholin-4-yl)propoxy)quinolin-4-yl)oxy)phenyl)-1-(4-bromophenyl)-4-oxo-1,4-dihydrocinnoline-3-carboxamide]: the half-inhibitory concentration (IC50) in assay [1] (HT-29, 72 h) is 0.87 µg/mL (≈ 1.15 µM); in assay [2] it was 1330 nM; in assay [3] (72 h) it was 1.8 µg/mL (≈ 2.39 µM); in assay [4] (MKN-45, 72 h) it was 1.4 µg/mL (≈ 1.86 µM); in assay [5] (SMMC-7721, 72 h), 2.1 µg/mL (≈ 2.78 µM); in assay [6] (NCI-H460, 72 h), 2.3 µg/mL (≈ 3.05 µM).

Broadly, the IC50 is the concentration that inhibits the measured activity by half.
